Measurements from publication PMC3517986 (Biochemical Journal, 2012).
“Also recorded” adds a separate entry of the source.

Tests used:
WDR5 [1] = target: T1, WDR5 (Homo sapiens, UniProt P61964); test: ITC; format: binding
WDR5 [2] = target: T1, WDR5; format: binding; details: fluorescence polarization, 40 nM FITC-WIN peptide, 5 μM WDR5, triplicate
SETD7 = test: HMT selectivity panel: SETD7; format: biochemical, human; details: concentrations up to 100 μM
SETD8 = test: HMT selectivity panel: SETD8; format: biochemical, human; details: concentrations up to 100 μM
[3] = target: MLL–WDR5–RbBP5 core complex (trimeric complex) (Homo sapiens, UniProt P61964); test: Methyltransferase activity of trimeric MLL complex; format: biochemical
PRMT5_MEP50 complex = test: HMT selectivity panel: PRMT5; format: biochemical, human; details: concentrations up to 100 μM
SUV39H2 = test: HMT selectivity panel: SUV39H2; format: biochemical, human; details: concentrations up to 100 μM
G9a = test: HMT selectivity panel: G9a; format: biochemical, human; details: concentrations up to 100 μM
EHMT1 = test: HMT selectivity panel: EHMT1; format: biochemical, human; details: concentrations up to 100 μM
[4] = target: MLL–WDR5–RbBP5–ASH2L complex (Homo sapiens, UniProt P61964); test: Methyltransferase activity of tetrameric MLL complex; format: biochemical; details: tetrameric MLL complex at 10, 50 and 125 nM; not calculated owing to incomplete fitting
PRMT3 = test: HMT selectivity panel: PRMT3; format: biochemical, human; details: concentrations up to 100 μM

| SMILES | Kd (WDR5 [1]) | Kdis (Kdisplacement) (WDR5 [2]) | inhibitory effect (SETD7) | inhibitory effect (SETD8) | IC50 ([3]; IC50, 125 nM (0.125 μM) trimeric MLL complex) | IC50 ([3]; IC50, 500 nM trimeric MLL complex) | IC50 ([3]; IC50, 1000 nM trimeric MLL complex) | inhibitory effect (PRMT5_MEP50 complex) | inhibitory effect (SUV39H2) | inhibitory effect (G9a) | inhibitory effect (EHMT1) | IC50 relative to trimeric complex [4] | inhibitory effect (PRMT3) |
| --- | --- | --- | --- | --- | --- | --- | --- | --- | --- | --- | --- | --- | --- |
| CN1CCN(c2ccc([N+](=O)[O-])cc2NC(=O)c2ccccc2)CC1 [WDR5-0101, N-(2-(4-methylpiperazin-1-yl)-5 nitrophenyl)benzamide] | 5500 ± 600 nM | 12 ± 1 µM | – | – | – | – | – | – | – | – | – | – | – |
| COC(=O)c1ccc(N2CCN(C)CC2)c(NC(=O)c2cccc(OC)c2)c1 [WDR5-0103, methyl-3-(3-methoxybenzamido)-4-(4-methylpiperazin-1-yl)benzoate] | 450 ± 20 nM | 3.0 ± 0.1 µM | no inhibitory effect; also recorded: did not affect methyltransferase activity | no inhibitory effect | 39 ± 10 µM | 83 ± 10 µM | 280 ± 12 µM | no inhibitory effect | no inhibitory effect | no inhibitory effect | no inhibitory effect | significantly higher | no inhibitory effect |
